# Source: article PMC10265587 (European journal of medicinal chemistry, 2022)
# Entries after “also recorded” stand apart in the source; their conditions may differ.
# Tests used:
# [1] = tested on: Nrf2 target genes GSTM3, HMOX1, NQO1 in NCM460D cells; assay: Expression of Nrf2-ARE regulated genes by RT-qPCR in NCM460D cells; format: cell-based; details: NCM460D cells, 100, 10 and 1 μM, 24 h, RT-PCR
# [2] = target: Keap1-Nrf2 PPI (Keap1 Kelch domain / FITC-9mer Nrf2 peptide amide) (Homo sapiens, UniProt Q14145); assay: Fluorescence polarization; details: FP assay, triplicates
# Sequence of Keap1-Nrf2 PPI (Keap1 Kelch domain / FITC-9mer Nrf2 peptide amide) (Q14145 321-609 limits assumed): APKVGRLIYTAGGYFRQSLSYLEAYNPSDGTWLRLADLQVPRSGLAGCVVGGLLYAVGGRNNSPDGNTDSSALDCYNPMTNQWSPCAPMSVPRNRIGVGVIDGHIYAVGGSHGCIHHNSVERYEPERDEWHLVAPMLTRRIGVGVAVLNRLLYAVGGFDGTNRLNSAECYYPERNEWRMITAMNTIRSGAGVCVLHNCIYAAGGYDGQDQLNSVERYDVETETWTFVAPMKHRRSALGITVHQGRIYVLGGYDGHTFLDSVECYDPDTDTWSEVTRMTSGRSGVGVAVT
inhibition at 5 µM [2] [%],Compound,"transcription (mRNA levels) of Nrf2 target genes GSTM3, HMOX1 and NQO1 [1]"
,"Cc1ccc(S(=O)(=O)N(CC(=O)O)c2ccc(N(CC(=O)O)S(=O)(=O)c3ccc(C)cc3)c(OCc3ccc(F)cc3)c2)cc1 [7v, 2-(4-Fluorobenzyloxy)-1,4-bis(4-methylphenylsulfonamido)benzene-N,N'-diacetic acid]",no effects
,"Cc1ccc(S(=O)(=O)N(CC(=O)O)c2cc(OCc3ccc(F)cc3)c(N(CC(=O)O)S(=O)(=O)c3ccc(C)cc3)c3ccccc23)cc1 [12d, 2-(4-Fluorobenzyloxy)-1,4-bis(4-methylphenylsulfonamido)naphthalene-N,N'-diacetic acid]",significantly increased; also recorded: effectively stimulate transcription
~50,"COc1ccc(S(=O)(=O)N(CC(=O)O)c2ccc(N(CC(=O)O)S(=O)(=O)c3ccc(OC)cc3)c(N3CCCCC3)c2)cc1 [7b, 2-(Piperidin-1-yl)-1,4-bis(4-methoxyphenylsulfonamido)benzene-N,N'-diacetic acid]",
